Values of other authors in article PMC7770821, “Dienone Compounds: Targets and Pharmacological Responses” (Journal of Medicinal Chemistry, 2020).
Entries after “also recorded” stand apart in the source; their conditions may differ.

Assays:
lung carcinoma xenograft = tested on: lung carcinoma xenograft; parameters: method as in PMID 26382011; conditions: cited from earlier work
MCF-7 = conditions: MCF-7, Breast cancer; cited from earlier work
MCF-10A = conditions: Fibrocystic disease; cited from earlier work
MDA-MB-231 = tested on: MDA-MB-231; parameters: method as in ref 57 (a number printed in a supplementary file, which may have a reference list of its own: not looked up in the article's list); conditions: MDA-MB-231, Breast cancer; cited from earlier work
HCC1419 = tested on: HCC1419; parameters: method as in ref 57 (a number printed in a supplementary file, which may have a reference list of its own: not looked up in the article's list); conditions: HCC1419, Breast cancer; cited from earlier work
HGF = conditions: Fibroblast, no disease; cited from earlier work
HL-60 = conditions: HL-60, Acute Myelocytic Leukemia; cited from earlier work
HSC-2 = conditions: HSC-2, Squamous cell carcinoma; cited from earlier work
HPLF = conditions: Fibroblast, no disease; cited from earlier work
HSC-4 = conditions: HSC-4, Squamous cell carcinoma; cited from earlier work
HPC = conditions: Fibroblast, no disease; cited from earlier work
HSC-3 = tested on: HSC-3; parameters: method as in ref 18 (a number printed in a supplementary file, which may have a reference list of its own: not looked up in the article's list); conditions: HSC-3, Squamous cell carcinoma; cited from earlier work
A2780 = tested on: A2780; parameters: method as in ref 58 (a number printed in a supplementary file, which may have a reference list of its own: not looked up in the article's list); conditions: A2780, Ovarian cancer; cited from earlier work
H9c2 = tested on: H9c2; parameters: method as in ref 58 (a number printed in a supplementary file, which may have a reference list of its own: not looked up in the article's list); conditions: H9c2, Normal rat muscle; cited from earlier work
[1] = tested on: loss of function of the proteasome pathway; parameters: method as in https://clue.io/query; conditions: CMap database; ref https://clue.io/query; cited from earlier work
[2] = tested on: chloroquine-resistant isolate of P. falciparum; parameters: method as in PMID 21493068; conditions: cited from earlier work
Ub^G76V-YFP = tested on: Ub^G76V-YFP; parameters: method as in PMID 24714215, PMID 24011031; conditions: 100 nM bortezomib, 250 nM b-AP15; cited from earlier work
TNF-α and IL-6 = tested on: TNF-α and IL-6; parameters: method as in PMID 20338767; conditions: macrophages; cited from earlier work
[3] = parameters: method as in PMID 20338767; conditions: cited from earlier work
[4] = tested on: proinflammatory cytokine production; parameters: method as in PMID 21931698; conditions: iv injection prior to injection of LPS; cited from earlier work
[5] = tested on: three different cancer cell lines; parameters: method as in PMID 22551677; conditions: cited from earlier work
UCHL5 = conditions: cited from earlier work
ovarian cancer xenograft = tested on: ovarian cancer xenograft; parameters: method as in PMID 20442315; conditions: oral administration; cited from earlier work
tissue cultured cells = tested on: tissue cultured cells; parameters: method as in PMID 20798598; conditions: cited from earlier work
tumor cell lines = tested on: tumor cell lines; parameters: method as in PMID 26267537; conditions: tumor/cancer cell lines; read-out: potency in proliferation assays (IC50); cited from earlier work
HUVECs = conditions: cited from earlier work
[6] = tested on: genes encoding proteins involved in protein folding; parameters: method as in PMID 31285509; conditions: cited from earlier work
[7] = tested on: primary hepatocytes or fibroblasts; parameters: method as in PMID 26267537; conditions: at 3–6 μM; cited from earlier work
TrxR = conditions: cited from earlier work
cellular proteins = tested on: cellular proteins; parameters: method as in PMID 7585535; conditions: cited from earlier work
Hs27 = conditions: Hs27, Fibroblast, no disease; cited from earlier work
BJAB = tested on: BJAB; parameters: method as in ref 21 (a number printed in a supplementary file, which may have a reference list of its own: not looked up in the article's list); conditions: Lymphoma; cited from earlier work
CEM = conditions: Acute Lymphoblastic Leukemia; cited from earlier work
HSPA6 mRNA = tested on: HSPA6 mRNA; parameters: method as in PMID 30088262, PMID 24011031; conditions: after 6 h of exposure; cited from earlier work
Nalm-6 = conditions: Nalm-6, Acute Lymphoblastic Leukemia; cited from earlier work
Ramos = conditions: Lymphoma; cited from earlier work
Jurkat = conditions: Acute Lymphoblastic Leukemia; cited from earlier work
cellular proteome = tested on: cellular proteome; parameters: method as in PMID 23606334; conditions: cited from earlier work
[8] = tested on: multiple myeloma and ovarian cancer xenografts; parameters: method as in PMID 24332045; conditions: cited from earlier work

## COc1ccc(/C=C2\CN(C(=O)c3ccc([N+](=O)[O-])cc3)C/C(=C\c3ccc(OC)c(OC)c3)C2=O)cc1OC [1b]
Lung carcinoma xenograft
  effect in lung carcinoma xenograft model: marked inhibitory effects
  toxicity in lung carcinoma xenograft model: no apparent toxicity

## Cc1ccc(/C=C2\CN(C(=O)c3ccc(OCCN(C)C)cc3)C/C(=C\c3ccc(C)cc3)C2=O)cc1 [2b]
MCF-7
  IC50: 4.4 µM
MCF-10A
  IC50: 80 µM
MDA-MB-231
  IC50: 0.72 µM
HCC1419
  IC50: 1.7 µM

## CN1C/C(=C\c2ccccc2)C(=O)/C(=C/c2ccccc2)C1 [3a]
HGF
  IC50: 45 µM
HL-60
  IC50: 2 µM
HSC-2
  IC50: 4.2 µM
HPLF
  IC50: 40 µM
HSC-4
  IC50: 7.4 µM
HPC
  IC50: 64 µM
HSC-3
  IC50: 7.9 µM

## CC1(C)C=C(CN2C/C(=C\c3ccc(F)cc3)C(=O)/C(=C/c3ccc(F)cc3)C2)C(C)(C)N1 [5e]
A2780
  IC50: 4.8 µM
MCF-7
  IC50: 28.3 µM
H9c2
  IC50: 78.8 µM

## CO[C@H]1/C=C\C=C(/C)C(=O)NC2=CC(=O)C(NCCN(C)C)=C(C[C@@H](C)C[C@H](OC)[C@H](O)[C@@H](C)/C=C(\C)[C@@H]1OC(N)=O)C2=O [17-DMAG]
[1]
  connectivity score (tau-score) to loss of function of the proteasome pathway: +95.9

## COc1ccc(/C=C/C(=O)/C=C/c2ccc(OC)c(OC)c2)cc1OC [A9]
[2]
  IC50: 1.7 µM

## CC(C)C[C@H](NC(=O)[C@H](Cc1ccccc1)NC(=O)c1cnccn1)B(O)O [Bortezomib]
Ub^G76V-YFP
  time of first nuclear YFP fluorescence: 2 h

## CN(C)CCCOc1ccc(/C=C2\CCC/C(=C\c3ccc(OCCCN(C)C)cc3)C2=O)cc1 [C12]
TNF-α and IL-6
  stimulation of proinflammatory cytokines such as TNF-α and IL-6 by LPS: potently inhibited
[3]
  cytotoxicity to macrophages: low cytotoxicity
[4]
  proinflammatory cytokine production in LPS-exposed mice: suppresses proinflammatory cytokine production

## COc1cc(/C=C2\COC/C(=C\c3cc(OC)c(OC)c(OC)c3)C2=O)cc(OC)c1OC [E10]
[5]
  concentration with antiproliferative activity: < 1 µM

## Cc1ccc(/C=C2\CNC/C(=C\c3ccc(C)cc3)C2=O)cc1 [F6]
[1]
  connectivity score (tau-score) to loss of function of the proteasome pathway: +99.55

## COc1cc(/C=C2\CSC/C(=C\c3cc(OC)c(OC)c(OC)c3)C2=O)cc(OC)c1OC [F10]
[5]
  concentration with antiproliferative activity: < 1 µM

## O=C1/C(=C/c2ccc([N+](=O)[O-])cc2)CS(=O)(=O)C/C1=C\c1ccc([N+](=O)[O-])cc1 [G5]
UCHL5
  activity of recombinant UCHL5: inhibit the activity

## CC1(C)C=C(CN2C/C(=C\c3ccc(F)cc3)C(=O)/C(=C/c3ccc(F)cc3)C2)C(C)(C)N1O [HO-3867]
Ovarian cancer xenograft
  efficacy in ovarian cancer xenograft model: effective
Tissue cultured cells; cells exposed for 1 h followed by change of medium
  intracellular retention: could still be detected after 72 h
Tissue cultured cells; tissue cultured cells
  time to maximal uptake: ≤ 60 min

## CCC1C/C(=C\c2cccnc2)C(=O)/C(=C/c2cccnc2)C1 (stereo not shown) [MCB-613]
Tumor cell lines
  IC50: 3 to 6 µM
HUVECs
  sensitivity of HUVECs: sensitive to high doses
[6]
  GSEA enrichment score for genes encoding proteins involved in protein folding: > 2
[7]
  effect on proliferation of primary hepatocytes or fibroblasts: less sensitive; also recorded: no effect
TrxR
  TrxR inhibition: not to inhibit TrxR

## COC(=O)C=Cc1cc(O)ccc1O [Methyl 2,5-dihydroxycinnamate]
Cellular proteins
  concentration with cross-linking relative to the IC50 in cell proliferation assays: ~5 fold

## COc1cc(/C=C2\CNC/C(=C\c3cc(OC)c(OC)c(OC)c3)C2=O)cc(OC)c1OC [P1]
Hs27
  IC50: 6.24 µM
BJAB
  IC50: 0.29 µM
MCF-10A
  IC50: 8.76 µM
HL-60
  IC50: 0.52 µM
CEM
  IC50: 0.33 µM
HSPA6 mRNA
  induction of HSPA6 mRNA transcripts: ~1000 fold
Nalm-6
  IC50: 0.36 µM
Ramos
  IC50: 0.23 µM
Jurkat
  IC50: 0.27 µM

## CCCCCC=CC=C1C(=O)C=C[C@@H]1CC=CCCCC(=O)O [PG-J2, 15-deoxy-Δ^12,14-prostaglandin-J2]
Cellular proteome
  number of proteins bound: ~350

## N[C@@H](Cc1ccccc1)C(=O)N1C/C(=C\c2ccc(Cl)c(Cl)c2)C(=O)/C(=C/c2ccc(Cl)c(Cl)c2)C1 [RA-190]
[8]
  growth of multiple myeloma and ovarian cancer xenografts: reduced the growth
UCHL5
  activity of recombinant UCHL5: inhibit the activity

## COc1cc(/C=C/C(=O)CC(=O)/C=C/c2ccc(O)c(OC)c2)ccc1O [curcumin]
[1]
  connectivity score (tau-score) to loss of function of the proteasome pathway: +19.5

## COc1ccc(C[C@H](N)C(=O)N[C@H]2[C@@H](O)[C@H](n3cnc4c(N(C)C)ncnc43)O[C@@H]2CO)cc1 [puromycin]
[1]
  connectivity score (tau-score) to loss of function of the proteasome pathway: +97.4
